Test results: PMC9408991, “Antitumor Effects of a New Retinoate of the Fungal Cytotoxin Illudin M in Brain Tumor Models” (International Journal of Molecular Sciences, 2022)

Experiments:
NE-4C neural stem cells = assay: Neuronal differentiation of NE-4C neural stem cells (β-tubulin III staining); type: cell-based, mouse; conditions: 10 nM, β-tubulin III staining
Protocol: NE-4C cells and their differentiated progeny neurons can be immunohistochemically distinguished by the presence of β-tubulin III only in the latter (Figure 3).
Astroglia cells grown on poly-L-lysine-coated glass cover slips were fixed with 4% paraformaldehyde in PBS for 20 min at room temperature and then permeabilized with Triton X-100 (0.1% v/v in PBS; 5 min). Nonspecific antibodies were blocked by incubation with 3% FBS in PBS (room temperature, 1 h). α-GFAP antibody (rabbit, DAKO) was used in a dilution of 1:2000 and was visualized by anti-rabbit IgG Alexa 594 (1:1000). DAPI (4′,6-diamidino-2-phenylindole) was used for nuclei staining. Fluorescence images were captured manually on a Zeiss Axiovert 200 M microscope fitted with 20- to 60-fold zoom and a Zeiss AxioCam MRm digital camera. Further applied antibodies were tubulin III (Sigma T5076), used at a dilution of 1:1000, and Annexin V. Cy3.18 (Sigma A4963).

[1] = tested on: retinoid-responsive elements (RARE); assay: RA reporter assay, F9 RARE-lacZ reporter cells; type: cell-based; conditions: 10 nM; control 45
Description: More typical of retinoic acid is its contribution to cell differentiation during vertebrate embryonic development by interacting with nuclear receptors, which bind to specific retinoid-responsive elements (RARE) within the promoters of subordinate genes, activating their transcription. To verify that retinoate 2 also binds to RARE, we used a reporter assay with F9 teratocarcinoma cells featuring a RARE located within the cis-acting regulatory sequences of the human retinoic acid receptor alpha gene and immediately upstream of the E. coli lacZ genes, which thus acquire retinoid responsivity. LacZ expression in cells treated with various concentrations of 2 was then quantitated by densitometric analysis of β-galactosidase activity visualized by X-Gal staining.
The F9 embryonal carcinoma cell line, stably transfected with the 1.8 kb promoter sequence of RARb2 coupled to the lacZ gene, was used to measure active retinoids. The assay is appropriate for detection of all-trans RA but is able to detect other retinoid isomers as well. The F9 reporter cells were maintained in 10% FCS containing DMEM in the presence of 400 ug/mL G418. A day before the assay, F9 cell were seeded onto 24-well plates (100,000 cell/well). The cells were than treated with various concentrations of 2. […]

CC1=C(/C=C/C(C)=C/C=C/C(C)=C/C(=O)O)C(C)(C)CCC1 [all-trans retinoic acid, reference compound]
differentiation of NE-4C stem cells to neurons (NE-4C neural stem cells): differentiate to neurons
gray value (densitometric analysis of β-galactosidase activity) [1]: 175
